Measured values reported in ChEMBL document CHEMBL5352382, “Synthesis and evaluation of imidazo[1,2-a]pyrazine derivatives as small molecule Gαq/11 inhibitors against uveal melanoma” (Eur J Med Chem, 2022).
Active and inactive are the calls of the source. The rule behind the calls is not given here.

Key:
[1] = target: GNAQ/GNA11 (Homo sapiens) (UniProt P50148+P29992); assay: Inhibition of Galphaq/11 (unknown origin) expressed in CHO-M1 cells at 10 uM preincubated for 1 hr followed by carbachol stimulation for 30 mins and measured after 1 hr by IP1 accumulation based HTRF assay relative to control; format: cell-based; details: time 150.0 min
[2] = Antiproliferative activity against human MP41 cells assessed as reduction in cell viability measured after 72 hrs by CCK-8 method; format: functional, cell-based; details: MP41, 72 h
[3] = Antiproliferative activity against human 921 cells assessed as reduction in cell viability measured after 72 hrs by CCK-8 method; format: functional, cell-based; details: Homo sapiens, 921, 72 h
HEK-293T = assay: Cytotoxicity against HEK293T cells assessed as reduction in cell viability at upto 10 uM measured after 72 hrs by CCK-8 method; format: toxicity, cell-based; details: human
BEAS-2B = assay: Cytotoxicity against human BEAS-2B cells assessed as reduction in cell viability at upto 10 uM measured after 72 hrs by CCK-8 method; format: toxicity, cell-based
A-375 = assay: Antiproliferative activity against human A-375 cells assessed as reduction in cell viability at 10 uM measured after 72 hrs by CCK-8 method; format: functional, cell-based
SK-MEL-2 = assay: Antiproliferative activity against human SK-MEL-2 cells assessed as reduction in cell viability at 10 uM measured after 72 hrs by CCK-8 method; format: functional, cell-based
MP41 [4] = assay: Antiproliferative activity against human MP41 cells assessed as reduction in cell viability at 10 uM measured after 72 hrs by CCK-8 method; format: functional, cell-based
921 = assay: Antiproliferative activity against human 921 cells assessed as reduction in cell viability at 10 uM measured after 72 hrs by CCK-8 method; format: functional, cell-based
MP41 [5] = assay: Inhibition of colony formation in human MP41 cells assessed as inhibition of cell proliferation at 1 uM incubated for 14 days with replacement with fresh medium for every 3 days by crystal violet staining based analysis; format: functional; details: time 14.0 day
MP41 [6] = assay: Inhibition of cell migration in human MP41 cells at 1 uM incubated for 24 hrs by wound healing assay; format: functional, cell-based

Row | SMILES | inhibition [1] [%] | IC50 [2] [µM] | IC50 [3] [µM] | other results
1 | CC[C@H](C)[C@H](N)C(=O)N1CCn2cc(-c3ccc4c(c3)CCCC4)nc2[C@@H]1CC | 11.5 | 30.2 | 22.3 | 
2 | CC[C@H](C)[C@H](N)CN1CCn2cc(-c3ccc4c(c3)CCCC4)nc2[C@@H]1CC1CCCCC1 | 11.9 | 17.4 | 4.8 | 
3 | CC[C@H](C)[C@H](N)C(=O)N1CCn2cc(-c3ccc4c(c3)CCCC4)nc2[C@H]1CC(C)C | 3.6 | 13.9 | 8.3 | 
4 | CC[C@H](C)[C@H](N)C(=O)N1CCn2cc(-c3cccc(Cl)c3Cl)nc2[C@@H]1CC1CCCCC1 | 19.9 | 9.2 | 13.8 | 
5 | CC[C@H](C)[C@H](N)C(=O)N1CCn2cc(-c3cccc(F)c3F)nc2[C@@H]1CC1CCCCC1 | 16.3 | 25.9 | 3.2 | 
6 | CC(C)(C)NCCN1CCn2cc(-c3ccc4c(c3)CCCC4)nc2[C@@H]1CC1CCCCC1 | 6.9 | 8.7 | 5.2 | 
7 | CC[C@H](C)[C@H](N)C(=O)N1CCn2cc(-c3ccc4c(c3)OCO4)nc2[C@@H]1CC1CCCCC1 | 20.2 | 12.8 | 18.5 | 
8 | c1cc2c(cc1-c1cn3c(n1)[C@H](CC1CCCCC1)N(CCNC1CCCC1)CC3)CCCC2 | 10.8 | 9.7 | 6.4 | 
9 | CCC[C@H](N)CN1CCn2cc(-c3ccc4c(c3)CCCC4)nc2[C@@H]1CC1CCCCC1 | 15.9 | 9 | 2.8 | 
10 | CC[C@H](C)[C@H](N)C(=O)N1CCn2cc(-c3cc(Cl)cc(Cl)c3)nc2[C@@H]1CC1CCCCC1 | 12.8 | 10.9 | 10.1 | 
11 | CC(C)C[C@H](N)CN1CCn2cc(-c3ccc4c(c3)CCCC4)nc2[C@@H]1CC1CCCCC1 | 15.7 | 7.5 | 3.1 | Activity (HEK-293T): Toxic; Activity (BEAS-2B): Toxic
12 | CC[C@H](C)[C@H](N)C(=O)N1CCn2cc(-c3cc(Cl)c(Cl)c(Cl)c3)nc2[C@@H]1CC1CCCCC1 | 13.2 | 7.8 | 5.9 | 
13 | CN1CCC[C@H]1CN1CCn2cc(-c3ccc4c(c3)CCCC4)nc2[C@@H]1CC1CCCCC1 | 19 | 15.2 | 5 | 
14 | N[C@H](CN1CCn2cc(-c3ccc4c(c3)CCCC4)nc2[C@@H]1CC1CCCCC1)C1CCCCC1 | 12.2 | 5.9 | 4.1 | Activity (HEK-293T): Toxic; Activity (BEAS-2B): Toxic
15 | CC[C@H](C)[C@H](N)C(=O)N1CCn2cc(-c3ccc4c(c3)CCCC4)nc2[C@H]1C(C)C | 10.3 | 21.4 | 11.6 | 
16 | CC[C@H](C)[C@H](N)C(=O)N1CCn2cc(-c3ccc4c(c3)CCCC4)nc2[C@@H]1C1CCCCC1 | 10.4 | 8.4 | 9.3 | 
17 | CC[C@H](C)[C@H](N)C(=O)N1CCn2cc(-c3cccc(Cl)c3OC)nc2[C@@H]1CC1CCCCC1 | 24.2 | 7.9 | 11.3 | 
18 | CC[C@H](C)[C@H](N)C(=O)N1CCn2cc(-c3cc(F)cc(Cl)c3)nc2[C@@H]1CC1CCCCC1 | 16.8 | 10.9 | 12.9 | 
19 | CC[C@H](C)[C@H](N)C(=O)N1CCn2cc(-c3ccc4c(c3)CCCC4)nc2[C@@H]1C(C)C | 9.4 | 19.8 | 13 | 
20 | N[C@@H](CSSC[C@H](N)C(=O)N1CCn2cc(-c3ccccc3)nc2[C@@H]1CC1CCCCC1)C(=O)N1CCn2cc(-c3ccccc3)nc2[C@@H]1CC1CCCCC1 | 10.9 | 10.2 | 14.3 | Activity (A-375): Active; Activity (SK-MEL-2): Active; Activity (MP41 [4]): Active; Activity 921: Active; inhibition (MP41 [5]): Active; inhibition (MP41 [6]): Active
21 | CCC[C@H]1c2nc(-c3ccc4c(c3)CCCC4)cn2CCN1C(=O)[C@@H](N)[C@@H](C)CC | 5.2 | 18.4 | 12.6 | 
22 | CC[C@H](C)[C@H](N)C(=O)N1CCn2cc(-c3cc(Cl)ccc3Cl)nc2[C@@H]1CC1CCCCC1 | 10.2 | 11 | 6.8 | 
23 | CN(C)CCN1CCn2cc(-c3ccc4c(c3)CCCC4)nc2[C@@H]1CC1CCCCC1 | 17.1 | 9.3 | 4.9 | 
24 | CN1CCN(CCN2CCn3cc(-c4ccc5c(c4)CCCC5)nc3[C@@H]2CC2CCCCC2)CC1 | 8.9 | 11 | 6.5 | 
25 | c1cc2c(cc1-c1cn3c(n1)[C@H](CC1CCCCC1)N(CCN1CCCCC1)CC3)CCCC2 | 6.8 | 12.8 | 6.8 | 

The next lines start with results.

Row | inhibition [1] [%] | SMILES | IC50 [2] [µM] | IC50 [3] [µM] | other results
26 | 21.9 | CC[C@H](C)[C@H](N)C(=O)N1CCn2cc(-c3cccc(Br)c3)nc2[C@@H]1CC1CCCCC1 | 10.6 | 8.4 | 
27 | 31.9 | CC[C@H](C)[C@H](N)C(=O)N1CCn2cc(-c3ccc(C)cc3)nc2[C@@H]1CC1CCCCC1 | 10.9 | 9.7 | 
28 | 13 | CC[C@H](C)[C@H](N)C(=O)N1CCn2cc(-c3cccc(S(C)(=O)=O)c3)nc2[C@@H]1CC1CCCCC1 | > 40 | > 40 | 
29 | 29.5 | CC[C@H](C)[C@H](N)C(=O)N1CCn2cc(-c3cccc(C)c3)nc2[C@@H]1CC1CCCCC1 | 6.2 | 24.3 | 
30 | 15 | CC[C@H](C)[C@H](N)C(=O)N1CCn2cc(-c3ccccc3C)nc2[C@@H]1CC1CCCCC1 | 7.1 | 8.8 | 
31 | 10.8 | CC[C@H](C)[C@H](N)C(=O)N1CCn2cc(-c3cccc(N)c3)nc2[C@@H]1CC1CCCCC1 | > 40 | > 40 | 
32 | 20.8 | CC[C@H](C)[C@H](N)C(=O)N1CCn2cc(-c3cccc(C#N)c3)nc2[C@@H]1CC1CCCCC1 | 9.9 | 34.5 | 
33 | 13.1 | CC[C@H](C)[C@H](N)C(=O)N1CCn2cc(-c3ccc4ccccc4c3)nc2[C@@H]1CC1CCCCC1 | 15.5 | 18.8 | 
34 | 8.5 | CC[C@H](C)[C@H](N)C(=O)N1CCn2cc(-c3cccc(C(=O)O)c3)nc2[C@@H]1CC1CCCCC1 | > 40 | > 40 | 
35 | 26.2 | CC[C@H](C)[C@H](N)C(=O)N1CCn2cc(-c3cccc(Cl)c3)nc2[C@@H]1CC1CCCCC1 | 11.2 | 10 | 
36 | 7.4 | CC[C@H](C)[C@H](N)C(=O)N1CCn2cc(-c3ccc(Cl)c(C)c3)nc2[C@@H]1CC1CCCCC1 | 5.8 | 8.2 | 
37 | 26.6 | CC[C@H](C)[C@H](N)C(=O)N1CCn2cc(-c3ccccc3)nc2[C@@H]1CC1CCCCC1 | 24.1 | 10.5 | 
38 | 13.2 | CC[C@H](C)[C@H](N)C(=O)N1CCn2cc(-c3ccc(Cl)c(Cl)c3)nc2[C@@H]1CC1CCCCC1 | 9.9 | 6.6 | 
39 | 17.8 | CC[C@H](C)[C@H](N)C(=O)N1CCn2cc(-c3cccc(F)c3)nc2[C@@H]1CC1CCCCC1 | 19.8 | 5 | 
40 | 24.4 | CC[C@H](C)[C@H](N)C(=O)N1CCn2cc(-c3ccccc3Cl)nc2[C@@H]1CC1CCCCC1 | 11.6 | 7.9 | 
41 | 26.5 | CC[C@H](C)[C@H](N)C(=O)N1CCn2cc(-c3ccc(Cl)cc3)nc2[C@@H]1CC1CCCCC1 | 10.1 | 9.4 | 
42 | 17.5 | CC[C@H](C)[C@H](N)C(=O)N1CCn2cc(-c3cccc([N+](=O)[O-])c3)nc2[C@@H]1CC1CCCCC1 | 10.1 | 12.2 | 
43 | 19.4 | CC[C@H](C)[C@H](N)C(=O)N1CCn2cc(-c3cccc(I)c3)nc2[C@@H]1CC1CCCCC1 | 18.1 | 9.1 | 
44 | 12.4 | CC[C@H](C)[C@H](N)C(=O)N1CCn2cc(-c3cccc(OC(F)(F)F)c3)nc2[C@@H]1CC1CCCCC1 | > 40 | > 40 | 
45 | 4.1 | CC[C@H](C)[C@H](N)C(=O)N1CCn2cc(-c3cccc(C(=O)OC)c3)nc2[C@@H]1CC1CCCCC1 | 16.2 | 25 | 
46 | 13.7 | CC[C@H](C)[C@H](N)C(=O)N1CCn2cc(-c3cccc(C)c3C)nc2[C@@H]1CC1CCCCC1 | 12.8 | 7 | 
